Source: ChEMBL document CHEMBL4229542 (Bioorg Med Chem Lett, 2018)

How the values were obtained:
[1] = Permeability from apical to basolateral side in human Caco2 cells; format: ADME, cell-based; settings: Caco-2, read-out: permeability
[2] = Intrinsic clearance in human liver microsomes assessed per mg protein; format: ADME, microsome; settings: read-out: CLH
[3] = Intrinsic clearance in mouse liver microsomes assessed per mg protein; format: ADME, microsome; settings: read-out: CLH
[4] = Intrinsic clearance in rat liver microsomes assessed per mg protein; format: ADME, microsome; settings: read-out: CLH
[5] = target: Tyrosine-protein kinase BTK (Homo sapiens, UniProt Q06187); assay: Inhibition of BTK (unknown origin)
Tyrosine-protein kinase BTK, sequence (Q06187 whole entry): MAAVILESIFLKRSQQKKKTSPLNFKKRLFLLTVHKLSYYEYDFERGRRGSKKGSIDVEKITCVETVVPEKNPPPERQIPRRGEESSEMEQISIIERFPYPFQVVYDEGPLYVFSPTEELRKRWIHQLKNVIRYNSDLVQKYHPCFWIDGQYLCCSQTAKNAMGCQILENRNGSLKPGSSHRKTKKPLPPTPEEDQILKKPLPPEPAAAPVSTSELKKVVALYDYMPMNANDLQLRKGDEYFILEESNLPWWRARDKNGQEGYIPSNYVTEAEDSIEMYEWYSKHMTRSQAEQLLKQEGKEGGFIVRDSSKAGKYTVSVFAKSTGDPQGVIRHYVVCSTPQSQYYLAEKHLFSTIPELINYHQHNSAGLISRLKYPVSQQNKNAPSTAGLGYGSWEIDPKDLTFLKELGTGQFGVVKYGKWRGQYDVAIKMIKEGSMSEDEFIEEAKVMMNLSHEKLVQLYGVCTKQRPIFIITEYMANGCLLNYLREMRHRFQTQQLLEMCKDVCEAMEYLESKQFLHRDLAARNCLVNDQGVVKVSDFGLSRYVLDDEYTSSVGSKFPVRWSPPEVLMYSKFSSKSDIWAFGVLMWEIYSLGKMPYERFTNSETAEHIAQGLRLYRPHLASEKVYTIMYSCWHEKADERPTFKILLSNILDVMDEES

[6] = Fraction unbound in human plasma; format: ADME, cell-free
[7] = Fraction unbound in mouse plasma; format: ADME, cell-free
[8] = Fraction unbound in rat plasma; format: ADME, cell-free
Cytochrome P450 2B6 = target: T1, Cytochrome P450 2B6 (Homo sapiens, UniProt P20813); assay: Inhibition of CYP2B6 (unknown origin); format: ADME
T1 sequence (P20813 whole entry): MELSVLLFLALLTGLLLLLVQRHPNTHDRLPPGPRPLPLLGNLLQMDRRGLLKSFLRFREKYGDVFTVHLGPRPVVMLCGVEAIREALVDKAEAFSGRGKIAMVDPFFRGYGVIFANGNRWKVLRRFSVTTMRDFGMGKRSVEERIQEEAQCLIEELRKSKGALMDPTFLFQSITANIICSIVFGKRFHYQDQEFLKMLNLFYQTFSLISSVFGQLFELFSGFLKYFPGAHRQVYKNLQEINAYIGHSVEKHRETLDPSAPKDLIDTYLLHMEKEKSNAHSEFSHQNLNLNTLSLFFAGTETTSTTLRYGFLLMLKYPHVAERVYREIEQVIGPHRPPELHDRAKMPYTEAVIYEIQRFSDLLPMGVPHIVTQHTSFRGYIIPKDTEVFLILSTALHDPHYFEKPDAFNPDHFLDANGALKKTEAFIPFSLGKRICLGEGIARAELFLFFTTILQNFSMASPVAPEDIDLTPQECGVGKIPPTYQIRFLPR

Cytochrome P450 2C19 = Cytochrome P450 2C19 (Homo sapiens, UniProt P33261); assay: Inhibition of CYP2C19 (unknown origin); format: ADME
Cytochrome P450 2C19, sequence (P33261 whole entry): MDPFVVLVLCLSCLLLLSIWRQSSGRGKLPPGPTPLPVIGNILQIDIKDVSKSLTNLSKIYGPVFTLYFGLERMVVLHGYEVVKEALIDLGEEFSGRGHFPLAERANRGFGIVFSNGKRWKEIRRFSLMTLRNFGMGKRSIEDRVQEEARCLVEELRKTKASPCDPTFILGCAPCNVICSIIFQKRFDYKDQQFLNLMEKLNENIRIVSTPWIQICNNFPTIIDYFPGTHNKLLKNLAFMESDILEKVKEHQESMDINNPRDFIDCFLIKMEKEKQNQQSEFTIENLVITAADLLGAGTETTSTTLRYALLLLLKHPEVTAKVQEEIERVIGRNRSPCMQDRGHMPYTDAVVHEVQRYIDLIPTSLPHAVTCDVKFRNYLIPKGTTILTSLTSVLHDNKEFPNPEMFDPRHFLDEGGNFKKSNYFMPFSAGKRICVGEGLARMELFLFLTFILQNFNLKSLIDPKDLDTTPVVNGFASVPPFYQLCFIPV

Cytochrome P450 2C9 = Cytochrome P450 2C9 (Homo sapiens, UniProt P11712); assay: Inhibition of CYP2C9 (unknown origin); format: ADME
Cytochrome P450 2C9, sequence (P11712 whole entry): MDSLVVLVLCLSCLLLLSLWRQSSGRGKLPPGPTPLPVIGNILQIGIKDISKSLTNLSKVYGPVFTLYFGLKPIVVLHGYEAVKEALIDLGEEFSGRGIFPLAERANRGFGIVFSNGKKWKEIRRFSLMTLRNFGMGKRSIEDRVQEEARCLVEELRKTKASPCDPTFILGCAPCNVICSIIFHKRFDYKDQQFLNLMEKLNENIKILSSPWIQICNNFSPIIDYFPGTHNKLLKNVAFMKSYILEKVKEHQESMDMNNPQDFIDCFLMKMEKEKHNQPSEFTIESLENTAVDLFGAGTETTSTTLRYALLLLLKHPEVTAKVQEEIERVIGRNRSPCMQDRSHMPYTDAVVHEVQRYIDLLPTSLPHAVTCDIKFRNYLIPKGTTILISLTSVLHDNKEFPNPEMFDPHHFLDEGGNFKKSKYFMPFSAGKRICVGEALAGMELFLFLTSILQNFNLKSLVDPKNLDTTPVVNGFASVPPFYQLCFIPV

Cytochrome P450 3A4 = Cytochrome P450 3A4 (Homo sapiens, UniProt P08684); assay: Inhibition of CYP3A4 (unknown origin); format: ADME
Cytochrome P450 3A4, sequence (P08684 whole entry): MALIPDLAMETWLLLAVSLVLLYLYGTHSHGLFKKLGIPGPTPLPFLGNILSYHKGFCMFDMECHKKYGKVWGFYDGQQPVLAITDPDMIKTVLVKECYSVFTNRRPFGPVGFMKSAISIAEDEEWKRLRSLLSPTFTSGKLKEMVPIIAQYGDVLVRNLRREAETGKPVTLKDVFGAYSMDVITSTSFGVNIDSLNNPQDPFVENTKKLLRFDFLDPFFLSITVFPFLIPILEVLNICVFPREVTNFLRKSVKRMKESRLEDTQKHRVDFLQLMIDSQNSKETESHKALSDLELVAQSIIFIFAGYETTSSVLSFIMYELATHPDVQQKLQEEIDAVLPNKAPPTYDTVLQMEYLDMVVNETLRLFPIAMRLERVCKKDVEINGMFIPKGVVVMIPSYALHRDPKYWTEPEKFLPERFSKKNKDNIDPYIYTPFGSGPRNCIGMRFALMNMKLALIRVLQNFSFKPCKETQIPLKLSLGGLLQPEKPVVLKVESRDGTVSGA

[9] = Half life in rat at 0.5 mg/kg, po; format: ADME, organism-based; settings: in vivo
[10] = Oral bioavailability in rat at 0.5 mg/kg; format: ADME, organism-based; settings: in vivo
EGFR = EGFR (Homo sapiens, UniProt P00533); assay: Inhibition of EGFR (unknown origin) at 1 uM relative to control
EGFR, sequence (P00533 whole entry): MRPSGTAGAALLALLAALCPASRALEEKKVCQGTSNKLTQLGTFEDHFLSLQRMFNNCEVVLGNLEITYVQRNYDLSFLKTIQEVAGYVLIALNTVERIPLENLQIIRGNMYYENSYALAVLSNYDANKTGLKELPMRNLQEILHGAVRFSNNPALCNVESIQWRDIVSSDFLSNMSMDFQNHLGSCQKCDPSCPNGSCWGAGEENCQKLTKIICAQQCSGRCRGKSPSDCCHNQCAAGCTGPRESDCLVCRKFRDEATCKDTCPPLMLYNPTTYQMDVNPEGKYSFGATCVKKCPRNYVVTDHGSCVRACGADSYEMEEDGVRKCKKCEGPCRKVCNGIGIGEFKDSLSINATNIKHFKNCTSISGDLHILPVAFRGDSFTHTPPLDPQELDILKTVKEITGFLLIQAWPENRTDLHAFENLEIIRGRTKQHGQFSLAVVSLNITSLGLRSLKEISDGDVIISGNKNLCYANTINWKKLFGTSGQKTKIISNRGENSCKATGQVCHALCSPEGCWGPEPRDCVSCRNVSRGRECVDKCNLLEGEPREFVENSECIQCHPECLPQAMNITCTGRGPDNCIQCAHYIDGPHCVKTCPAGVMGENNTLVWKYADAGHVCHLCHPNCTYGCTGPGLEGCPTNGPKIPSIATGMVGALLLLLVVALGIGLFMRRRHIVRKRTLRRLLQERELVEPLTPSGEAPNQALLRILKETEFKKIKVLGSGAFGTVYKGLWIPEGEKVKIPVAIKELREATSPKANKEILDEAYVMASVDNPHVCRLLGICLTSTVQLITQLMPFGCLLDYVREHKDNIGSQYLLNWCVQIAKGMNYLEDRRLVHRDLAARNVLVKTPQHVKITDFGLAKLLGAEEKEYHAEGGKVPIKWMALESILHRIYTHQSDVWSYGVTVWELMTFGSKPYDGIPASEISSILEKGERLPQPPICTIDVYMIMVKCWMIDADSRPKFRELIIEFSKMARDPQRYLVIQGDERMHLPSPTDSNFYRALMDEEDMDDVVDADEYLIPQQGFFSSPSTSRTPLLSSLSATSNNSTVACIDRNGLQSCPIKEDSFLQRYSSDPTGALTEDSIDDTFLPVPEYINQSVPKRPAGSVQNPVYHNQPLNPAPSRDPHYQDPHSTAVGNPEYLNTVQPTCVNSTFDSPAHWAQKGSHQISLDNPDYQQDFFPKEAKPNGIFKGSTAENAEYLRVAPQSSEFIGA

[11] = target: Voltage-gated inwardly rectifying potassium channel KCNH2 (Homo sapiens, UniProt Q12809); assay: Binding affinity to human ERG
Voltage-gated inwardly rectifying potassium channel KCNH2, sequence (Q12809 whole entry): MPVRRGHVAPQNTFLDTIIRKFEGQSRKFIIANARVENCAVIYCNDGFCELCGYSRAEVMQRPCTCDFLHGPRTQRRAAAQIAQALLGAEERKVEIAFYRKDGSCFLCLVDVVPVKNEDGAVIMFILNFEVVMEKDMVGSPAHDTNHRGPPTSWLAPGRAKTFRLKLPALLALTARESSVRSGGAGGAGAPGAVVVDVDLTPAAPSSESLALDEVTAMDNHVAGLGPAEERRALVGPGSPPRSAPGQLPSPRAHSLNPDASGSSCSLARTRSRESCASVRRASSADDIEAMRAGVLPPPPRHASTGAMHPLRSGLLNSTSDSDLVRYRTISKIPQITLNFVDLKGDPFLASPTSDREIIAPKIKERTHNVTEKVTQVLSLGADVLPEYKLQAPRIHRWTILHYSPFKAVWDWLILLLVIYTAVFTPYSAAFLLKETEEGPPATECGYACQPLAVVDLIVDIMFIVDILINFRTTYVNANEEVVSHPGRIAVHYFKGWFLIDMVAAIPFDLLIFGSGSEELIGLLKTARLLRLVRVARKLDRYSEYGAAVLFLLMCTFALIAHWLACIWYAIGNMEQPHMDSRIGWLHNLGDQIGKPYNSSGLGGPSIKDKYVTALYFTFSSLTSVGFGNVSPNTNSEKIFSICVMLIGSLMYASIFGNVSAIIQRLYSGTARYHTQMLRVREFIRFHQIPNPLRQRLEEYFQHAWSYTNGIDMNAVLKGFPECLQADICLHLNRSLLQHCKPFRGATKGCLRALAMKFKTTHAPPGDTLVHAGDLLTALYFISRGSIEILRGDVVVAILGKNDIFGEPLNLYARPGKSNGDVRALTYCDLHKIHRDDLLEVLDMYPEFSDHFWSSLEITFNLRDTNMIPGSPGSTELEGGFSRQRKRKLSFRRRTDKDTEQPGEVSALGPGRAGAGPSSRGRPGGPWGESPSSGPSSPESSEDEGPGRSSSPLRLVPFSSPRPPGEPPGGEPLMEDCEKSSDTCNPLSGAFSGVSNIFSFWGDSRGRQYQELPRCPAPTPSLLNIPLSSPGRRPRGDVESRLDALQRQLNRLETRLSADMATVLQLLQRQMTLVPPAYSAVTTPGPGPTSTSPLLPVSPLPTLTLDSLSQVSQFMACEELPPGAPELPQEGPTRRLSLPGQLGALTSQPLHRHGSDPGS

Cytochrome P450 2C8 = target: T2, Cytochrome P450 2C8 (Homo sapiens, UniProt P10632); assay: Inhibition of CYP2C8 (unknown origin); format: ADME
T2 sequence (P10632 whole entry): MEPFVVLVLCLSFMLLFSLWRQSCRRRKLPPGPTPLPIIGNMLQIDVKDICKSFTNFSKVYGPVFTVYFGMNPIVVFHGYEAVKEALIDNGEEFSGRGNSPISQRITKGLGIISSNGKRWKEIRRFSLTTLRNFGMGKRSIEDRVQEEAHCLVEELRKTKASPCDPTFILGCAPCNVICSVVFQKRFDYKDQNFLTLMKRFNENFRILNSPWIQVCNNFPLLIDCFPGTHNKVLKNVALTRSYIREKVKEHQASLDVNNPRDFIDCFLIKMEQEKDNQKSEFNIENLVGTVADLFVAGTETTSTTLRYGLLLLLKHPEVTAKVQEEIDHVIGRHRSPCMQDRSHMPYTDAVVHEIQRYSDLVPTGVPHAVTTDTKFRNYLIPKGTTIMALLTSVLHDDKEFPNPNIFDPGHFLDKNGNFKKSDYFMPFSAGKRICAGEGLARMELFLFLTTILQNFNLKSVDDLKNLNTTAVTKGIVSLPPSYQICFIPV

[12] = Clearance in rat at 0.5 mg/kg, po; settings: in vivo
Rattus norvegicus = assay: Volume of distribution at steady state in rat at 0.5 mg/kg, po; format: ADME, organism-based; settings: in vivo
[13] = target: Tyrosine-protein kinase Blk (Homo sapiens) (UniProt P51451); assay: Inhibition of Blk (unknown origin) at 1 uM relative to control
Tyrosine-protein kinase Blk (Homo sapiens), sequence (P51451 2-505 limits assumed): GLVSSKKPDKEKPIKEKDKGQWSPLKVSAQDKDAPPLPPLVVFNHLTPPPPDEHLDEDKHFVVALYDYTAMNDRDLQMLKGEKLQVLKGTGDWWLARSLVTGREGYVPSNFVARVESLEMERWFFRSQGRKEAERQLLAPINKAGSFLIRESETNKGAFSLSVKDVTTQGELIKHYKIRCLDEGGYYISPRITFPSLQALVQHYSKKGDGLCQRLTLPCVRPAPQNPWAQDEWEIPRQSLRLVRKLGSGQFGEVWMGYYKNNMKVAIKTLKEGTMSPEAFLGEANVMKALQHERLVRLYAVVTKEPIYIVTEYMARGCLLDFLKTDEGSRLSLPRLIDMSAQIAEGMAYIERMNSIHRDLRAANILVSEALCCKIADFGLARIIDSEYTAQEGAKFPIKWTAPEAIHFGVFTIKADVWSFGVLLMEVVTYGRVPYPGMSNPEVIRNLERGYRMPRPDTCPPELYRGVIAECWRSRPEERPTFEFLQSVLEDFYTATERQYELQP

[14] = target: T3, Cytoplasmic tyrosine-protein kinase BMX (Homo sapiens) (UniProt P51813); assay: Inhibition of BMX (unknown origin) at 1 uM relative to control
T3 sequence (whole entry): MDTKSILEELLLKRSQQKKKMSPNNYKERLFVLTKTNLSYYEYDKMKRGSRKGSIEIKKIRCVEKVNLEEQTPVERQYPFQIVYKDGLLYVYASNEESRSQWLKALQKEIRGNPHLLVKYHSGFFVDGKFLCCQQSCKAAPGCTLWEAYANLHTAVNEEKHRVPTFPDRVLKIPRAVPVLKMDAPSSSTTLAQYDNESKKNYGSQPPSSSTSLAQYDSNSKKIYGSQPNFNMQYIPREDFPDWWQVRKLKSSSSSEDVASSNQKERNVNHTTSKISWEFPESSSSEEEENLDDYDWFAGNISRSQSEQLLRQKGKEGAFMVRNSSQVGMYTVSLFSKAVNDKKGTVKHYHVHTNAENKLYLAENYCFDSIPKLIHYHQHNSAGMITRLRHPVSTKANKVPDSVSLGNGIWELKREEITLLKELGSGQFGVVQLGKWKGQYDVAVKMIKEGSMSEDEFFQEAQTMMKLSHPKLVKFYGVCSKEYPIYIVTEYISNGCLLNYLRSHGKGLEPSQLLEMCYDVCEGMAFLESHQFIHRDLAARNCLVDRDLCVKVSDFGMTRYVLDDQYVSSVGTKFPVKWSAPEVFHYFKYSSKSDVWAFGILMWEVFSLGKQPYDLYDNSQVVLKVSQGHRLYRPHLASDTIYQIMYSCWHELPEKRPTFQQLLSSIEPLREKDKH

[15] = target: T4, Tyrosine-protein kinase TXK (Homo sapiens) (UniProt P42681); assay: Inhibition of TXK (unknown origin) at 1 uM relative to control
T4 sequence (whole entry): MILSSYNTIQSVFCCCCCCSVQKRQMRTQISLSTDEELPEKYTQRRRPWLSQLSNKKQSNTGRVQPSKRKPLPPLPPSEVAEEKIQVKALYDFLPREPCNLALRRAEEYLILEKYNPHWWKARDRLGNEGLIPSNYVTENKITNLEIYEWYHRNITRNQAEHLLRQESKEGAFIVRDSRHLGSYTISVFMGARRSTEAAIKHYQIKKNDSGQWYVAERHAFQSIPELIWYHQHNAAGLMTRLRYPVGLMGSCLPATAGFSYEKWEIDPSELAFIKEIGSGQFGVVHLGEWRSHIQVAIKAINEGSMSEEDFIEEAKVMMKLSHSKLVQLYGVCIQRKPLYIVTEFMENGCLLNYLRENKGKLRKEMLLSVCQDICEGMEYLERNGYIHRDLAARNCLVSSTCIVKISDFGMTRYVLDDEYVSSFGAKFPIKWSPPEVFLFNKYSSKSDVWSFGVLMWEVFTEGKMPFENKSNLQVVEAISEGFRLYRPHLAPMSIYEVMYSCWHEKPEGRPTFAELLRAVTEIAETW

SMILES	Papp A→B [1] [×10⁻⁶ cm/s]	microsomal CLint [2] [µL/min/mg]	microsomal CLint [3] [µL/min/mg]	microsomal CLint [4] [µL/min/mg]	also measured
C=CC(=O)N1C2CCC1CN(c1ccc(C(N)=O)c(Oc3ccc(Oc4ccccc4)cc3)n1)C2	0.6	106	315	145	
C=CC(=O)N1CCN(c2ccc(C(N)=O)c(Oc3ccc(Oc4ccccc4)cc3)n2)CC1	13	< 10	18	97	
C=CC(=O)N1CC[C@H](Nc2ccc(C(N)=O)c(Oc3ccc(Oc4ccccc4)cc3)n2)C1	3	125	228	254	
C=CC(=O)N[C@H]1CCN(c2ccc(C(N)=O)c(Oc3ccc(C(=O)N4CCOCC4)cc3)n2)C1					IC50 [5]: 10 µM
C=CC(=O)N1CCC[C@@H](n2nc(-c3ccc(Oc4ccccc4)cc3)c3c(N)ncnc32)C1 [IBRUTINIB]	7.2				fraction unbound [6]: 0.025; fraction unbound [7]: 0.017; fraction unbound [8]: 0.02; IC50 (Cytochrome P450 2B6): 11.1 µM; IC50 (Cytochrome P450 2C19): 19 µM; IC50 (Cytochrome P450 2C9): 8.5 µM; IC50 (Cytochrome P450 3A4): 11 µM; half-life [9]: 30 min; bioavailability [10]: 12%; inhibition at 1 µM (EGFR): > 50%
C=CC(=O)N1CC[C@@H](Nc2ccc(C(N)=O)c(Oc3ccc(Oc4ccccc4)cc3)n2)C1	10	156	191	136	
C=CC(=O)N[C@H]1CCN(c2ccc(C(N)=O)c(Nc3ccc(C(=O)N4CCOCC4)cc3)n2)C1					IC50 [5]: 0.0016 µM
C=CC(=O)N[C@@H]1CCCN(c2ccc(C(N)=O)c(Oc3ccc(Oc4ccccc4)cc3)n2)C1		309	488	1000	
C=CC(=O)N1C[C@@H]2C[C@H]1CN2c1ccc(C(N)=O)c(Oc2ccc(Oc3ccccc3)cc2)n1	6.7 to 6.8	74	62	203	fraction unbound [6]: 0.0046; fraction unbound [7]: 0.002; fraction unbound [8]: 0.0031; Ki [11]: 2.2 µM; IC50 (Cytochrome P450 2C8): 0.1 µM; CL/F [12]: 20.7 mL/min/kg; Vdss (Rattus norvegicus): 0.86 L/kg; half-life [9]: 43.2 min; bioavailability [10]: 47%; inhibition [13]: 96%; inhibition [14]: 95%; inhibition [15]: 54%
C=CC(=O)N1C[C@H]2C[C@@H]1CN2c1ccc(C(N)=O)c(Oc2ccc(Oc3ccccc3)cc2)n1	8	33	472	148	
C=CC(=O)N[C@H]1CCN(c2ccc(C(N)=O)c(Oc3ccc(Oc4ccccc4)cc3)n2)C1	14	10	27	21	
C=CC(=O)NCC1CCCN(c2ccc(C(N)=O)c(Oc3ccc(Oc4ccccc4)cc3)n2)C1 (configuration not stated)		140	562	302	
C=CC(=O)N1C2CC1CN(c1ccc(C(N)=O)c(Oc3ccc(Oc4ccccc4)cc3)n1)C2		49	647	167	
